Results: article PMC11881554 (Antimicrobial Agents and Chemotherapy, 2025)
Like-named read-outs stand apart in the source and are kept apart here. Each block holds one molecule with its values, some of them ahead of it.

Legend:
[1] = system: E. coli ATCC BAA202 (SHV-1); assay: MIC by agar dilution, E. coli ATCC BAA202; format: cell-based; details: Escherichia coli, ATCCBAA202, MB076 fixed at 4 µg/mL in the combination
Description: (§1) Cation adjusted (25.0 mg/L Ca^2+ and 12.5 mg/L Mg^2+) Mueller-Hinton broth (CAMHB; BBL Microbiology Systems, Cockeysville, MD) and agar (CAMHA; Becton, Dickinson and Company, Sparks, MD) were used for susceptibility testing and for all in vitro experiments. […] All antibiotic solutions were filter sterilized using a 0.22-μm-pore-size filter (Fisher Scientific, Pittsburgh, PA).

[2] = system: K. pneumoniae KPC-Kpn-1 (KPC-3, SHV-12, TEM-1); assay: MIC by agar dilution, KPC-Kpn-1; format: cell-based; details: Klebsiella pneumoniae, inhibitor (MB076 or S02030) fixed at 4 µg/mL in the combination
Description: as §1

[3] = system: K. pneumoniae Kpn 34700 (CTX-M-15, SHV, TEM); assay: MIC by agar dilution, Kpn 34700; format: cell-based; details: Klebsiella pneumoniae, MB076 fixed at 4 µg/mL in the combination
Description: as §1

[4] = system: K. pneumoniae Kpn original KPC-2; assay: MIC by agar dilution, Kpn original KPC-2; format: cell-based; details: Klebsiella pneumoniae, MB076 fixed at 4 µg/mL in the combination
Description: as §1

[5] = system: K. pneumoniae Kpn ST17 (KPC-2, TEM, SHV, CTX-M group 1); assay: MIC by agar dilution, Kpn ST17; format: cell-based; details: Klebsiella pneumoniae, MB076 fixed at 4 µg/mL in the combination
Description: as §1

[6] = system: K. pneumoniae Kpn ST258 C3 (KPC-3); assay: MIC by agar dilution, Kpn ST258 C3; format: cell-based; details: Klebsiella pneumoniae, MB076 fixed at 4 µg/mL in the combination
Description: as §1

[7] = system: K. pneumoniae Kpn ST258 B5 (KPC-2); assay: MIC by agar dilution, Kpn ST258 B5; format: cell-based; details: Klebsiella pneumoniae, MB076 fixed at 4 µg/mL in the combination
Description: as §1

[8] = system: K. pneumoniae Kpn266 (SHV-5); assay: MIC by agar dilution, Kpn266; format: cell-based; details: Klebsiella pneumoniae, MB076 fixed at 4 µg/mL in the combination
Description: as §1

[9] = system: K. pneumoniae Kpn 255 (TEM-1, SHV-2); assay: MIC by agar dilution, Kpn 255; format: cell-based; details: Klebsiella pneumoniae, MB076 fixed at 4 µg/mL in the combination
Description: as §1

[10] = system: K. pneumoniae isolate KPC-Kpn-1; assay: Neutropenic mouse lung infection model (intranasal challenge); format: in vivo; details: 24 h post treatment; treatment from 2 h post infection; cefepime 127.5 mg/kg/day SC, MB076 100 mg/kg/day IV (25 mg/kg every 6 h); neutropenic mice, n = 5
Description: (§2) A 0.2 mL aliquot of a single-use glycerol stock of the KPC-Kpn isolate (at −80°C) was used to seed 20 mL brain heart infusion (BHI) and then incubated at 35–37°C with shaking (120 rpm) for 8 h. Bacterial cells in the 20 mL aliquot were pelleted by centrifugation (3,500 × g) for 15 min and then resuspended in 10 mL cold phosphate buffer saline (PBS). The optical density, OD620 nm, was measured and used to guide dilution. The PBS suspensions were stored on ice for no more than 2 h prior to infecting the animals. The bacterial count in the challenge organism suspension was enumerated by dilution plating to CAMH agar plates followed by 20–24 h incubation.
Eleven- to 12-week-old BALB/c mice obtained from Charles River Laboratories (Raleigh, NC) were allowed to acclimatize for at least 1 week prior to initiating the studies. All animal procedures were approved by the Institutional Animal Care and Use Committee at the University of North Carolina at Chapel Hill (IACUC ID: 21-125.0), and all experiments were performed in accordance with institutional guidelines for animal experiments. […]
Five mice/group were sacrificed by overdose of inhaled 5% isoflurane at 26 h post inoculation. […] Lung bacterial counts were analyzed using a one-way ANOVA followed by post-hoc Tukey multiple comparison test (GraphPad Prism 10.1, GraphPad Software Inc., San Diego, USA). […]

K. pneumoniae KPC-Kpn-1 [11] = assay: Survival of mice infected intravenously via the tail vein; format: in vivo; details: male C57BL/6, 7 per group, 2.1 × 10^8 CFU/mouse IV; 100 mg/kg/dose at infection, 18 and 24 h; combination at 1:4 molar ratio
Description: as §2
Seven male C57BL/6 mice per treatment group were infected intravenously via the tail-vein by injecting a prepared inoculum of KPC-Kpn-1, input CFU = 2.1 × 10^8 CFU/mouse, contained in a volume of 0.25 mL per animal. […] Doses were repeated the following morning and afternoon (18 and 24 h after infection). Survival was evaluated 24 h post-treatment. Kaplan-Meier survival curves were generated using log-rank test (GraphPad Prism 10.1, GraphPad Software Inc., San Diego, USA). A P value of <0.05 was considered statistically significant.

[12] = healthy adults, multidose cefepime and zidebactam; cited from earlier work
K. pneumoniae KPC-Kpn-1 [13] = assay: Static time-kill assay in CAMHB; format: cell-based; details: in combination with cefepime
Description: as §1

[14] = Plasma pharmacokinetics of MB076 after single IV dose in thigh-infected mice; format: in vivo, mouse; details: for half-life / AUC(0-t) / AUC(0-inf) / C0 / clearance / Vd: plasma; for half-life: iv; for Vd: read-out: Vss
Description: A single dose PK study was conducted in mice infected with K. pneumoniae AR-BANK#0098 (producing KPC-2, OXA-9, and TEM-1) employing a thigh infection model. Escalating doses of MB076 (12.5, 25, 50, and 100 mg/kg) were intravenously administered via the tail vein. Following this terminal blood sampling via cardiac puncture was performed at eight different time points 5, 15, 30, 60, 90, 120, 180, and 240 min for each dose level. Plasma was separated by centrifugation at 4,000g for 10 min at 4°C and stored at −80°C until MB076 quantification was performed by LC/MS-MS bioanalysis.
WinNonlin software (Phoenix Build 8.3.1.5014) was employed to perform noncompartmental analysis (NCA) to calculate the PK parameters like elimination half-life (t1/2), area under the concentration–time curve over the duration of study (AUC0–last), and infinity (AUC0–inf), and the peak drug concentration (C0), volume of distribution (V) and clearance (CL). The AUCs for the different MB076 dose levels were calculated and compared to assess for any dose related non-linearity with increasing dose.
Terminal blood collection from cardiac puncture was conducted under CO2 euthanasia. Blood, 0.3–0.4 mL, was drawn into tubes coated with K2EDTA, mixed gently and kept on ice, and centrifuged at 12,000 × g for 5 min at 4°C within 1 h of collection. The plasma was harvested and stored at −80°C until further processing.
A 20 µL aliquot of each plasma sample was transferred to a 96 well plate. A 500 µL aliquot of 0.01 ng/µL internal standard (IS), Oxybutynin, in ACN/FA = 95/5, was added to each tube except for the double blank and carryover controls. A 500 µL aliquot of ACN/FA = 95/5, without oxybutynin, was added to the double blank and carryover assay wells. The equilibrated mixture was vortexed for 1 min and then centrifuged at 4,000 rpm for 10 min at 20°C to precipitate protein. After centrifugation, 500 µL of the supernatant was transferred to a new well of the 96 well plate for LC-MS/MS analysis. Plasma samples from treatment groups and the calibration curve samples were processed on the same test occasion using the same procedure. The calibration curve samples were generated by spiking aliquots of drug-free plasma with an MB076 dilution. The quality control (QC) samples, QH (high), QM (medium), and QL (low) were each assayed in duplicate.
LC-MS/MS was conducted with a SCIEX Triple Quad 5500 + mass spectrometer. Method development was conducted to determine appropriate conditions for LC-MS/MS analysis of MB076. A titration of a stock solution was performed to correlate peak areas and the corresponding concentration. The reportable linear range of the assay was determined along with the lower and upper limits of quantitation (LLOQ and […]).
To develop the bioanalytical method, MB076 was prepared in ACN/H2O = 50/50 at 1 ng/µL. Full scan MS analyses were conducted, and total ion current chromatograms and corresponding mass spectra were reviewed for MB076 in both positive and negative ionization modes. The precursor ions for MS/MS were selected from either the positive or the negative mass spectrum, as a function of the respective ion abundance. In addition, product ion MS/MS analysis was performed to determine the appropriately selected fragmentation reaction for use in quantitative analysis. The final reaction monitoring parameters were chosen to maximize the ability to quantify the test compound when present within a complex mixture of components. Following the identification of the specific multiple reaction monitoring (MRM) transition to be used for each test compound, the detection parameters were optimized. MB076 was observed as one charged ion [M + H]+ and the MRM chosen was m/z = 374.0 to m/z = 243.2 for MB076 in electrospray positive ion mode.
The chromatographic conditions used for LC-MS analysis were identified by injection and separation of the analyte on a suitable LC column followed by adjustment of the gradient conditions as necessary. […]

[15] = design: method as in PMID 37358467; details: cited from earlier work
[16] = mouse, 12.5 mg/kg single IV, thigh-infected mice
[17] = mouse, 25 mg/kg single IV, thigh-infected mice
[18] = mouse, 50 mg/kg single IV, thigh-infected mice
[19] = mouse, 100 mg/kg single IV, thigh-infected mice

Compound: CO/N=C(\C(=O)N[C@@H]1C(=O)N2C(C(=O)[O-])=C(C[N+]3(C)CCCC3)CS[C@H]12)c1csc(N)n1 [FEP, cefepime]
- MIC [1]: 1 µg/mL
- MIC [2]: 32 µg/mL
- MIC [3]: 32 µg/mL
- MIC [4]: 64 µg/mL
- MIC [5]: 8 µg/mL
- MIC [6]: 32 µg/mL
- MIC [7]: 32 µg/mL
- MIC [8]: 2 µg/mL
- MIC [9]: 4 µg/mL
- log10 CFU reduction in lung compared to the no treatment control group [10]: 1.07 log10 CFU
- survival outcome of all mice in the group (K. pneumoniae KPC-Kpn-1 [11]): died
- median AUCELF/AUCplasma [12]: 38%

- reduction in clearance ([14]; 100 mg/kg compared to 12.5 mg/kg): 1.7 fold
- increase of dose-normalized AUC ([14]; from 12.5 to 100 mg/kg dose): twofold
- extraction ratio ([14]; hepatic blood flow in mouse 5.4 L/h/kg): 0.33
- clearance classification ([14]; mouse, IV): low clearance compound
- half-life ([14]; mouse, 25 mg/kg, 25 mg/kg single IV, thigh-infected mice): 36.6 min
- half-life ([14]; mouse, 50 mg/kg, 50 mg/kg single IV, thigh-infected mice): 25.8 min
- half-life ([14]; mouse, 100 mg/kg, 100 mg/kg single IV, thigh-infected mice): 25.8 min
- AUC(0-t) ([14]; mouse, single IV 12.5 to 100 mg/kg, infected mice, read-out: AUClast, range over the dose levels): 7100 to 103000 ng·h/mL
- dose linearity of plasma PK ([14]; mouse, single IV): linear PK in plasma up to 50 mg/kg dose
- AUC(0-inf) [14, 16]: 7200 ng·h/mL
- C0 [14, 16]: 35.6 µg/mL
- clearance [14, 16]: 29.1 mL/min/kg
- AUC(0-t) ([14]; mouse, 12.5 mg/kg single IV, thigh-infected mice, read-out: AUClast): 7100 ng·h/mL
- Vd [14, 16]: 0.65 L/kg
- AUC(0-inf) [14, 17]: 17800 ng·h/mL
- C0 [14, 17]: 84 µg/mL
- clearance [14, 17]: 23.4 mL/min/kg
- AUC(0-t) ([14]; mouse, 25 mg/kg single IV, thigh-infected mice, read-out: AUClast): 17600 ng·h/mL
- Vd [14, 17]: 0.8 L/kg
- AUC(0-inf) [14, 18]: 31900 ng·h/mL
- C0 [14, 18]: 207 µg/mL
- clearance [14, 18]: 21.3 mL/min/kg
- AUC(0-t) ([14]; mouse, 50 mg/kg single IV, thigh-infected mice, read-out: AUClast): 39000 ng·h/mL
- Vd [14, 18]: 0.35 L/kg
- AUC(0-inf) [14, 19]: 104000 ng·h/mL
- C0 [14, 19]: 638 µg/mL
- clearance [14, 19]: 16.1 mL/min/kg
- AUC(0-t) ([14]; mouse, 100 mg/kg single IV, thigh-infected mice, read-out: AUClast): 103000 ng·h/mL
- Vd [14, 19]: 0.21 L/kg
Compound: Nc1nnc(SCC(=O)N[C@@H](Cn2cc(C(=O)O)nn2)B(O)O)s1 [MB076]
- inhibitor concentration achieving sustained bacterial killing (K. pneumoniae KPC-Kpn-1 [13]): 4 µg/mL
- t1/2 (plasma stability) [15]: 1740 min

Compound: O=C(Cc1cccs1)N[C@@H](Cn1cc(C(=O)O)nn1)B(O)O [S02030]
- inhibitor concentration achieving sustained bacterial killing (K. pneumoniae KPC-Kpn-1 [13]): 8 µg/mL
- t1/2 (plasma stability) [15]: 540 min
